Where a name gives a salt, the structure may show the parent alone. Where only a bound is given, the exact number is not on record here.

Experimental findings from US5750754A, “Heterocyclic compounds” (Zeneca Limited, priority 1993, dated 1998) are described below.

Assay [1] addresses T1, purified human platelet fibrinogen receptor (GPIIb/IIIa) (Homo sapiens, UniProt P05106+P08514).
T1 construct: is isolated from human platelet lysates; from tissue
The assay is described as follows: Test (b): GPIIb/IIIa ELISA, inhibition of biotinylated fibrinogen binding. As to conditions: purified human platelet GPIIb/IIIa, ELISA; for IC50: read-out: Test (b): pIC50 (-log(IC50)), 50% inhibition of biotinylated fibrinogen binding to GPIIb/IIIa (converted). The method, then:
(i) Preparation of human platelet lysates.
Platelet rich plasma (PRP) is harvested by centrifugation (1000 rpm, 15 mins) of whole blood anticoaoulated with acid citrate dextrose (trisodium citrate 85 mM, citric acid 70 mM, d-glucose 110 mM) 1 part to 6 parts blood. Prostacyclin (PGI2, 1 μM) is added to the PRP before centrifugation (2400 pm, 15 mins) and the resulting pellet is resuspended in modified Tyrodes' solution (NaCl 130 mM, KCl 26 mM, NaHCO3 12 mM, NaH2 PO4 0.5 mM, MgCl2 1 mM, CaCl2 20 mM, Glucose 12 mM, HEPES 5 mM) containing bovine serum albumin 3.5 g/L, PGI2 1 μM and hirudin 0.5 U/ml. The platelet suspension is centrifuged (2400 rpm, 15 mins) and the resultant pellet resuspended in 500 μl of lysis buffer (octyl glucoside 50 mM, HEPES 10 mM, NaCl 150 mM, CaCl2 1 mM, MgCl2 1 mM, PMSF 1 mM, NEM 10 mM, leupeptin 0.1 mM), agitated at 4° C. for 15 minutes then centrifuged at 24000 rpm, 15 mins. The supernatant is stored at 4° C. and the pellet re-suspended in 500 μl of lysis buffer. The centrifugation process is repeated a further 3 tlimes, the pooled supernatants being stored at -70° C.
(ii) Receptor purification.
GP Ilb/Ila is isolated from human platelet lysates using a 2 ml peptide (KYGRGDS) coupled CNBr activated Sepharose affinity column. A 1.5 ml volume of platelet lysate is placed on the column and allowed to stand overnight at 4° C. Buffer (30 mls, octyl gluicoside 25 mM, HEPES 10 mM, NaCl 150 mM, CaCl2 1 mM, MgCl2 1 mM, PMSF 1 mM, NEM 10 mM, leupeptin 0.1 mM) is passed through the column and 2 ml fractions are collected throughout. GPIIb/IIIa is eluted with 12 mls of buffer containing HHLGGAKQAGDV (2 mg/ml, pH 7.5), the column is washed using 4 mls buffer and the remaining GPIIb/IIIa eluted using 12 mls buffer containing GRGDSPG (1 mg/ml pH 7.5). The column is finally washed using 20 mls of buffer and can be used for up to three such preparations. Fractions containing FGPIIb/IIIa are identified using gel electrophoresis and immunoblotting, pooled and stored at -70° C.
96 well microtitre plates are coated with 100 μl purified human platelet fibrinogen receptor (GPIIb/IIIa) diluted in coating buffer (Tris-HCl 20 mM, NaCl 150 mM, CaCl2 1 mM, pH 7.4) and left overnight at 4° C. The plates are washed using washing buffer (Tris-HCl 50 mM, NaCl 100 mM, CaCl2 2 mM, pH 7.4) and non-specific binding, blocked by the addition of 200 μl 2% BSA (2 hours, 30° C.). The plates are washed prior to incubation (2 hours, 30° C.) with 100 μl biotinylated fibrinogen ([…]) containing either vehicle or test compound. The plates are washed, incubated with streptavidin (5 μg/ml, 1 hour, ambient temperature), then washed again before the addition of 100 μl biotinylated horse radish peroxidase (0.1 μg/ml, 1 hour, ambient temperature). The plates are then washed and equal volumes of peroxidase substrate (3, 5, tetramethyl benzidine 0.4 g/l) and H2 O2 (0.02%) are mixed together immediately before addition of 150 μl to each well. Colour is allowed to develop for 10-15 mins before optical densities are read at 650 nm.
The concentration of compound required to cause 50% inhibition of biotinylated fibrinogen binding, is calculated and expressed as a pIC50 (-log(IC50)).
A general note: In an ELISA, binding on a coated surface is turned into a signal by an enzyme label.

Assay [2] concerns the target T2, human, citrated, platelet-rich plasma (Homo sapiens, UniProt P05106+P08514).
T2 construct: aggregating human, citrated, platelet-rich plasma; endogenous in cells; host or cells: human platelets in citrated platelet-rich plasma
The assay is described as follows: Test (a): inhibition of ADP stimulated platelet aggregation (Born). Type of assay: cell-based. As to conditions: ADP induced aggregation of human platelet-rich plasma; for Kb: read-out: Test (a): pA2 value indicating potency of platelet aggregation inhibition (converted). An excerpt:
(i) aggregating human, citrated, platelet-rich plasma by addition of adenosine diphosphate so as to generate a dose-response curve;
(ii) generating a dose-response curve for ADP stimulated platelet aggregation in the presence of increasing amounts of a test compound (generally in the range 10-^5 M to 10-^10 M); and
(iii) calculating a pA2 value indicating potency of platelet aggregation inhibition for the test compound, averaged over several concentrations, from the calculated 50% response value for ADP aggregation in the presence and absence of the test compound.

T2 sequence (P08514 32-887 limits assumed): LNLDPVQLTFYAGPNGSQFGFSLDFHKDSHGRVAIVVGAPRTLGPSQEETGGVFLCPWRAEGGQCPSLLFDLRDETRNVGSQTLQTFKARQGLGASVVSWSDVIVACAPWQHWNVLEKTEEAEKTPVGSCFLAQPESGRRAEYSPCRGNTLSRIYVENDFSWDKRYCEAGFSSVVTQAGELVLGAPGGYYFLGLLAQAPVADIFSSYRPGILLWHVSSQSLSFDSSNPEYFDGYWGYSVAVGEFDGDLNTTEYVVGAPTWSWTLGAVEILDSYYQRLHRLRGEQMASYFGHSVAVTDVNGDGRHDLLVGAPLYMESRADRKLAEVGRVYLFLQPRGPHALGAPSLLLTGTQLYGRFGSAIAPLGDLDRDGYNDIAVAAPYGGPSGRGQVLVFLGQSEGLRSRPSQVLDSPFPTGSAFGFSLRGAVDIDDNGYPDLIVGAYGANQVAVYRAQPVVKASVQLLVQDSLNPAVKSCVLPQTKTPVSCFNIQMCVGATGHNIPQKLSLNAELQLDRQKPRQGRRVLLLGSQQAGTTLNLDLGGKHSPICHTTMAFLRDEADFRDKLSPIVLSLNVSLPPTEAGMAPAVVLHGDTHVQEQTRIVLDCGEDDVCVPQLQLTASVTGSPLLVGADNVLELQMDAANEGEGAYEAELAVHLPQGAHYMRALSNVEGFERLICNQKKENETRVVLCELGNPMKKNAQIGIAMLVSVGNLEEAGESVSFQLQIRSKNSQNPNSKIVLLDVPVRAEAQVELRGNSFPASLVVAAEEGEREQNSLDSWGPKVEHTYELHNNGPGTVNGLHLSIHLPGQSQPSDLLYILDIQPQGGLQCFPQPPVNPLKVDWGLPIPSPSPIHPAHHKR
T2 sequence (P08514 891-1039 limits assumed): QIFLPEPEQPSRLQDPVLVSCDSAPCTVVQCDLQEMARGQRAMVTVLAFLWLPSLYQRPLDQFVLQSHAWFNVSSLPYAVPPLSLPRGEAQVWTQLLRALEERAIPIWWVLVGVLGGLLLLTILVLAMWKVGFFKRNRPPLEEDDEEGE
T2 sequence (P05106 27-788): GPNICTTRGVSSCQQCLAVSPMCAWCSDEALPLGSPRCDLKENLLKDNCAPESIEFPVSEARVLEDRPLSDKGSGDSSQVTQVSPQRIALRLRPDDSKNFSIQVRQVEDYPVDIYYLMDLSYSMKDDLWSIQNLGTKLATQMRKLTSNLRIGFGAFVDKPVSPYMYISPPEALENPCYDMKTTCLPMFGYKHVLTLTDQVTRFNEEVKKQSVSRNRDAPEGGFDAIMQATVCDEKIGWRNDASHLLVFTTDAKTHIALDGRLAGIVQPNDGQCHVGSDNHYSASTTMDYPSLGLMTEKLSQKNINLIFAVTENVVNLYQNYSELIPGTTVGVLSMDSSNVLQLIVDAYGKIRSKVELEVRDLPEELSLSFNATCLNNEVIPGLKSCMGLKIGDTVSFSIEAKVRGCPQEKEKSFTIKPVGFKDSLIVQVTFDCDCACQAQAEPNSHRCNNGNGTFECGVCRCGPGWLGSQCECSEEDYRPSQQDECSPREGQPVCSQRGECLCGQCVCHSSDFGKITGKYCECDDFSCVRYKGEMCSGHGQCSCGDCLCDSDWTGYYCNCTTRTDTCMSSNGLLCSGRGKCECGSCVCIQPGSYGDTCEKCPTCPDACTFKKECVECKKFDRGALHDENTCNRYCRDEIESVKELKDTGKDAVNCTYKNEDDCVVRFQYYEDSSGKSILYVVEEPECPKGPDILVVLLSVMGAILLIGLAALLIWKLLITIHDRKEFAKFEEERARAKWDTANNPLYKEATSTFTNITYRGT
T1 sequence (P08514 32-887 limits assumed): as the sequence (P08514 32-887 limits assumed) above
T1 sequence (P08514 891-1039 limits assumed): as the sequence (P08514 891-1039 limits assumed) above
T1 sequence (P05106 27-788): as the sequence (P05106 27-788) above

As to `COC(=O)COc1c(Cl)cc(C(=O)CN2CCN(c3ccncc3)CC2)cc1Cl` [Example 116], the IC50 in assay [1] is 2.51 µM. In addition, the Kb in assay [2] is 2 µM.
The like results for `CCOC(=O)c1ccc(C(=O)CN2CCN(c3ccncc3)CC2)cc1` [Example 131, Ethyl 4-[2-[4-(4-pyridyl)piperazin-1-yl]acetyl]benzoate] were, in that order, 31.6 µM and 25.1 µM.
On to `COC(=O)COc1ccc(NC(=O)CC2CCN(c3ccncc3)CC2)cc1` [Example 165], for which the IC50 in assay [1] was 20 µM. Also, the Kb in assay [2] was 1.26 µM.
The matching figures for `O=C(O)CCC1CCN(C(=O)CN2CCN(c3ccncc3)CC2)CC1` [Example 109, 3-[1-[2-[4-(4-Pyridyl)piperazin-1-yl]acetyl]piperidin-4-yl]propanoic acid]: 0.631 µM and 0.316 µM.
Regarding `COC(=O)COc1ccc(C(=O)CN2CCN(c3cc(C)nc(C)c3)CC2)cc1` [Example 153, Methyl [2-[4-(2,6-dimethylpyrid-4-yl)piperazin-1-yl]acetyl]phenoxyacetate, hydrobromide], the IC50 in assay [1] is 50.1 µM. Also, in assay [2], the Kb is 15.8 µM.
The like results for `COC(=O)[C@H](Cc1ccccc1)NC(=O)c1ccc(N2CCN(c3ccncc3)CC2)cc1` [Example 190, N[4-[(4-Pyridyl)piperazin-1-yl]benzoyl]-L-phenylalanine, methyl ester] were, in that order, 20 µM and 63.1 µM.
The like results for `O=C(O)COc1ccc2c(=O)c(N3CCN(c4ccncc4)CC3)cn(Cc3ccccc3)c2c1` [Example 49, [1-Benzyl-3-[4-(4-pyridyl)piperazin-1-yl]-4-quinolon-7-yl]oxyacetic acid trifluoroacetate salt] were, in that order, 0.00631 µM and 0.0794 µM.
Consider `O=C(O)COc1ccc(C(=O)CN2CCN(c3ccnc4ccccc34)CC2)cc1` [Example 44, 4-[2-[4-(4-Quinolinyl)piperazin-1-yl]acetyl]phenoxyacetic acid trifluoroacetate salt], for which, in assay [1], the IC50 was 0.1 µM. Further, in assay [2], the Kb was 10 µM.
With `O=C(O)CCc1ccc(C(=O)CN2CCN(c3ccncc3)CC2)cc1` [Example 12, 3-[4-[2-[4-(4-Pyridyl)piperazin-1-yl]acetyl]phenyl]propionic acid], the IC50 in assay [1] was 0.0631 µM. In assay [2], the Kb is 0.501 µM.
For the compound `O=C(O)C1CCCC(Oc2ccc(N3CCN(c4ccncc4)CC3)cc2)C1` (centres unmarked) [Example 237, 3-[4-[4-(Pyridyl)piperazin-1-yl]phenoxy]cyclohexane carboxylic acid], the IC50 in assay [1] was 0.0316 µM. In addition, the Kb in assay [2] is 0.794 µM.
On to `CCOC(=O)C=CCOc1ccc(N2CCN(c3ccncc3)CC2)cc1` [Example 54, Ethyl 4-[4-(4-pyridyl)piperazin-1-yl]phenoxycrotonate], for which, in assay [1], the IC50 was above 100 µM. Moreover, in assay [2], the Kb was 15.8 µM.
The matching figures for `CC(C)(Oc1ccc(C(=O)CN2CCN(c3ccncc3)CC2)cc1)C(=O)O` [Example 135, 2-[4-[2-[4-(4-Pyridyl)piperazin-1-yl]acetyl]phenoxy]isobutyric acid, dihydrobromide]: above 100 µM and 31.6 µM.
With `COC(=O)CCNC(=O)CCCCN1CCN(c2ccncc2)CC1` [Example 197, Methyl 3-[5-[4-(4-pyridyl)piperazine-1-yl]petanoyl]aminopropionate], the IC50 in assay [1] was 15.8 µM. The Kb in assay [2] is 63.1 µM.
The like results for `CC(C)(C)OC(=O)COC1CCCN(C(=O)CN2CCN(c3ccncc3)CC2)C1` (centres unmarked) [Example 103, Tert-butyl 1-[2-[4-(4-pyridyl)piperazin-1in-1-yl]acetyl]piperidin-3-yloxyacetate] were, in that order, 7.94 µM and 31.6 µM.
As for `O=C(O)CCC(CC1CCN(C(=O)CN2CCN(c3ccncc3)CC2)CC1)C(=O)O` (centres unmarked) [Example 112], the “Test (b): pIC50 (-log(IC50)), 50% inhibition of biotinylated fibrinogen binding to GPIIb/IIIa” value in assay [1] was 5.5. Also, the “Test (a): pA2 value indicating potency of platelet aggregation inhibition” value in assay [2] was found to be 5.2.
Take `Cc1cc(N2CCN(CC(=O)c3ccc(OCC(=O)O)cc3)CC2)cc(C)n1` [Example 154, 4-[2-[4-(2,6-Dimethylpyrid-4-yl)piperazin-1-yl]actyl]phenoxyacetic acid, dihydrobromide]: the IC50 in assay [1] is 2.51 µM. In addition, in assay [2], the Kb is 10 µM.
For `O=C(O)CCCCOc1ccc(N2CCN(c3ccncc3)CC2)cc1` [Example 53, 5-[4-[4-(4-Pyridyl)piperazin-1-yl]phenoxy]pentanoic acid], the IC50 in assay [1] was 1.26 µM. The Kb in assay [2] is 1.58 µM.
For the compound `O=C(O)c1ccc(C(=O)CN2CCN(c3ccncc3)CC2)cc1` [Example 132, Sodium 4-[2-[4-(4-pyridyl)piperazin-1-yl]acetyl]benzoate], in assay [1], the IC50 was 31.6 µM. Besides, the Kb in assay [2] is 63.1 µM.
Turning to `O=C(O)COc1ccc(NC(=O)CC2CCN(c3ccncc3)CC2)cc1` [Example 166, 4-[2-[1-(4-Pyridyl)piperidin-4-yl]acetamido]phenoxyacetic acid dihydrochloride], in assay [1], the IC50 is 0.316 µM. For the same compound, the Kb in assay [2] was 1.58 µM.
Consider `O=C(O)COc1ccc(C(=O)NC2CCN(c3ccncc3)CC2)cc1` [Example 167, 4-[[1-(4-Pyridyl)piperidin-4-yl]aminocarbonyl]phenoxyacetic acid dihydrochloride], for which, in assay [1], the IC50 was 0.2 µM. Moreover, the Kb in assay [2] was 0.251 µM.
As for `COC(=O)CC(NS(=O)(=O)c1ccc(C)cc1)c1ccc(OCC2CCN(c3ccncc3)CC2)cc1` (centres unmarked) [Example 99, Methyl 3-(4-methylphenylsulphonylamino)-3-[4-[1-(4-pyridyl)piperidin-4-yl]methoxyphenyl]propionate], in assay [1], the IC50 is 0.251 µM. Further, the Kb in assay [2] was 3.98 µM.
`O=C(O)COc1ccc(OCCC2CCN(c3ccncc3)CC2)cc1` [Example 160, 4-[2-[1-(4-Pyridyl)piperidin-4-yl]ethoxy]phenoxyacetic acid]: the IC50 in assay [1] is 0.0158 µM. The Kb in assay [2] was 0.794 µM.
As for `CC(C)(C)OC(=O)COc1ccc(C(=O)CN2CCN(c3ccncc3)CC2)cc1` [Example 138, tert-Butyl 4-[2-[4-(4-pyridyl)piperazin-1-yl]acetyl]-phenoxyacetate], in assay [1], the IC50 is 12.6 µM. Further, the Kb in assay [2] is 10 µM.
The like results for `CC(C)OC(=O)COc1ccc(C(=O)CN2CCN(c3ccncc3)CC2)cc1` [Example 137, iso-Propyl 4-[2-[4-(4-pyridyl)piperazin-1-yl]acetyl]phenoxyacetate] were, in that order, 3.16 µM and 0.0631 µM.
The matching figures for `O=C(CN1CCN(c2ccncc2)CC1)c1ccc(OCc2nnn[nH]2)cc1` [Example 141, 5-[4-[2-[4-(4-Pyridyl)piperazin-1-yl]acetyl]phenoxymethyl]tetrazole]: 31.6 µM and 31.6 µM.
